For orientation: MIC means the smallest concentration in the dilution series that meets the test's criterion for growth inhibition.

Where only a bound is given, the exact number is not on record here.

What all share (assay type): cell-based
Assay [1] deals with Co-cultivation of A. fumigatus + C. albicans (MYA3626 + ATCC 90028). In words: Broth microdilution MIC assay against co-culture of fungal spores. The settings on record: Aspergillus fumigatus + Candida albicans co-culture; repeated MIC study (Table 4), agent alone; listed as Itraconazone. The method, then:
Broth Microdilution Minimal Inhibitory Concentration (MIC) assays were performed to obtain the MIC values for Itraconazole and Ketoconazole with an antibiotic (Vancomycin or Tobramycin or Amikacin) against the two fungal strains.
The strains were maintained as a frozen glycerol stocks at −80° C. The fungal strains were prepared by thawing a glycerol stock, streaking and growing onto Sabouraud's Dextrose Agar (SDA) plates, overnight at 35±2° C. in aerobic conditions and used for the assay.
Antifungal agents: Itraconazole (Cat #16657, Lot #087K1322), Ketoconazole (Cat # K1003, Lot # SLBR1290V). Stocks were prepared in appropriate solvents following the CLSI guidelines. See, for example, Reference method for broth dilution antifungal susceptibility testing of filamentous fungi, approved standard, 2nd ed. CLSI document M38-A2, vol. 28. CLSI, Wayne, Pa. (2008).
The completely synthetic medium RPMI-1640 (with glutamine, without bicarbonate, and with phenol red as a pH indicator) was buffered with 0.165 mol/L MOPS (3-[N-morpholino] propanesulfonic acid) buffer was used as the growth medium for the fungal strains. Overnight cultures of the fungal strains were grown on Difco™ Sabouraud's Dextrose Agar (SDA) plates at 35° C. To induce conidium and sporangiospore formation, the culture plates were transferred to incubator and grown for 5-7 days 30° C. or until good sporulation was obtained. […]
(In general: Broth dilution looks for growth in wells or tubes with falling amounts of substance.)

In assay [2] the test system is Aspergillus fumigatus+Candida albicans co-culture. In words: Checkerboard synergy assay, co-culture (FIG. 7, Table 4). Conditions: combination of Aspergillus fumigatus and Candida albicans; read-out: MIC (agent alone, read from checkerboard FIG. 7). The method, then: This study evaluated the synergistic activity of 2 antifungal agents (Itraconazole and Ketoconazole) with an antibiotic (Vancomycin or Tobramycin or Amikacin) against the spores of 2 fungi; Aspergillus fumigatus MYA3626 and Candida albicans ATCC 90028; individually as well as in co-cultivation (Aspergillus fumigatus+Candida albicans). Synergy testing was carried out as per checkerboard assay by Victor Lorian methodology. See, for example, Lorian, V. Antibiotics in Laboratory Medicine. Edition 5: (2005).
In vitro activity of the test articles were tested in combination by the Checkerboard assay. See, for example, Lorian, V. Antibiotics in Laboratory Medicine. Edition 5: (2005). The assay was carried out in duplicates. The starting concentrations for the test articles was determined as per the MIC data. Two-fold serial dilutions of 8×MIC for the antifungal agents; Itraconazole and Ketoconazole was performed separately. When Itraconazole and Ketoconazole were combined in a microtiter plate, the concentration of both agents was 2×MIC. […] The plates were incubated at 35° C. for 3-5 days. The assay plates were visually inspected to confirm the MIC endpoint and used to calculate the Fractional Inhibitory Concentration (FIC) Index to determine any synergistic interaction.
The FIC Index was calculated as follows: […]

For assay [3], the system named is Candida albicans. The assay is described as follows: Culture sensitivity, Patient 7 isolate. Conditions: Patient 7 Candida albicans culture. An excerpt:
(§1) The patient underwent the standard workup for CRS, sleep disorder, and nasal obstruction, plus our diagnostic skin test and sinus CT scan.

Assay [4] deals with S. aureus, a bacteria. In words: Culture sensitivity, Patient 7 isolate. The settings on record: Patient 7 bacterial culture.
Description: as §1

Take `CCC(C)n1ncn(-c2ccc(N3CCN(c4ccc(OCC5COC(Cn6cncn6)(c6ccc(Cl)cc6Cl)O5)cc4)CC3)cc2)c1=O` (centres unmarked) [Itraconazole]: the MIC in assay [1] was 1 µg/mL; in assay [2], more than 0.5 µg/mL.

Take `CC(=O)N1CCN(c2ccc(OCC3COC(Cn4ccnc4)(c4ccc(Cl)cc4Cl)O3)cc2)CC1` (centres unmarked) [Ketoconazole]: the MIC in assay [2] is more than 4 µg/mL. For the same compound, the Culture sensitivity entry in assay [3] is reported as “sensitive”.

As to `NC[C@H]1O[C@H](O[C@H]2[C@H](O)[C@@H](O[C@H]3O[C@H](CO)[C@@H](O)[C@H](N)[C@H]3O)[C@H](N)C[C@@H]2N)[C@H](N)C[C@@H]1O` [tobramycin], the Culture sensitivity entry in assay [4] was “sensitive”.

These data come from patent US20180050034A1, “ANTIFUNGAL TREATMENT OF CROHN'S DISEASE” (Gerbe Labs Inc., priority 2016, published 2018).
